Source: patent US8772298B2, “Spirocyclic heterocycles medicaments containing said compounds, use thereof and method for their production” (Boehringer Ingelheim International GmbH, priority 2008, dated 2014)

Target: T1, human EGF-R (Homo sapiens, UniProt P00533)
T1 construct: expressed in transfected cells
Assay: Inhibition of EGFR-dependent proliferation (EGF-stimulated murine haematopoietic cell line expressing human EGF-R)
Assay type: cell-based
Settings: 20 ng/ml human EGF, 48 hours at 37° C., Cell Titer 96 AQueous assay
Method: A murine haematopoietic cell line is genetically modified so as to express functional human EGF-R. The proliferation of this cell line can therefore be stimulated by EGF.
The test is carried out as follows:
The cells are cultivated in RPMI/1640 medium. The proliferation is stimulated with 20 ng/ml of human EGF (Promega). To investigate the inhibitory activity of the compounds according to the invention these compounds are dissolved in 100% dimethylsulphoxide (DMSO) and added to the cultures in various dilutions, the maximum DMSO concentration being 1%. The cultures are incubated for 48 hours at 37° C.
In order to determine the inhibitory activity of the compounds according to the invention the relative cell number is measured in O.D. Units using the Cell Titer 96™ AQueous Non-Radioactive Cell Proliferation Assay (Promega). The relative cell number is calculated as a percentage of the control and the concentration of active substance which inhibits the proliferation of the cells by 50% (IC50) is derived therefrom.

T1 sequence (P00533 25-1210): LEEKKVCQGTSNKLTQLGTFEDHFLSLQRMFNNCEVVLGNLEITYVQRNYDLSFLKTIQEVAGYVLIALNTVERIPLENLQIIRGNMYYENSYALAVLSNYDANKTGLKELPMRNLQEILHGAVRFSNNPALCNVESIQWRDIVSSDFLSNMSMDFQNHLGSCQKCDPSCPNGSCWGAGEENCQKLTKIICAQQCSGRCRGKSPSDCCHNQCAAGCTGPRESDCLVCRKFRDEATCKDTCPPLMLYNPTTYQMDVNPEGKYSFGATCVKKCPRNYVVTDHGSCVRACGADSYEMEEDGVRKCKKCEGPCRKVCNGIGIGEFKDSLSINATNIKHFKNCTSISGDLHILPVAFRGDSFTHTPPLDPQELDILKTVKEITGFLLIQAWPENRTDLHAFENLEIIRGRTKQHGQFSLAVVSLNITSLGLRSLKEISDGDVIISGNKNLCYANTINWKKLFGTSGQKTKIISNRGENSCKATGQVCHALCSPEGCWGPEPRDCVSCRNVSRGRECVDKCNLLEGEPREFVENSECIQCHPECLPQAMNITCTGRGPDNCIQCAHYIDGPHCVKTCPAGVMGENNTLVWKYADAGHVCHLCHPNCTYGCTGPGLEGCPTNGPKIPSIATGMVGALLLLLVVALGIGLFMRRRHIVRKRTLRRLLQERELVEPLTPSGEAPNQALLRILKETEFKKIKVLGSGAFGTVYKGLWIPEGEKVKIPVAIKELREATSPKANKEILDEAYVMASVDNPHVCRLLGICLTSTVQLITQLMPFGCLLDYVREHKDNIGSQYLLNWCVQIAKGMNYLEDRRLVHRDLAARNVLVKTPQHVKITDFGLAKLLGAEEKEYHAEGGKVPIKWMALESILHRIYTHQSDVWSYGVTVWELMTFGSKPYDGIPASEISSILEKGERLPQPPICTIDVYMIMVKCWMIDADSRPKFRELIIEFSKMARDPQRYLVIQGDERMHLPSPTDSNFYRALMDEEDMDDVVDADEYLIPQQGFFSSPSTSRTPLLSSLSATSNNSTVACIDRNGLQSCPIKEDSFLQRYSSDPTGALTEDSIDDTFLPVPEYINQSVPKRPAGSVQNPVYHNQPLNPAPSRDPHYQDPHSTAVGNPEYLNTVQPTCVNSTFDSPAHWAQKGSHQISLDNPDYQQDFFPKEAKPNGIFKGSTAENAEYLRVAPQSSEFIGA

Row | SMILES | IC50
1 | COc1cc2ncnc(Nc3cccc(Cl)c3F)c2cc1O[C@H]1CC[C@@]2(CC1)NCCN(C)C2=O [1(1), anti-9-[4-(3-chloro-2-fluoro-phenylamino)-7-methoxy-quinazolin-6-yloxy]-4-methyl-1,4-diaza-spiro[5.5]undecan-5-one] | 2 nM
2 | COc1cc2ncnc(Nc3cccc(Cl)c3F)c2cc1O[C@H]1CC[C@]2(CC1)NCCNC2=O [1(2), syn-9-[4-(3-chloro-2-fluoro-phenylamino)-7-methoxy-quinazolin-6-yloxy]-1,4-diaza-spiro[5.5]undecan-5-one] | 2 nM
3 | COc1cc2ncnc(Nc3cccc(Cl)c3F)c2cc1O[C@H]1CC[C@@]2(CC1)NCCNC2=O [Example 1, anti-9-[4-(3-chloro-2-fluoro-phenylamino)-7-methoxy-quinazolin-6-yloxy]-1,4-diaza-spiro[5.5]undecan-5-one] | 4 nM

Next, values leading:

Row | IC50 | SMILES
4 | 2 nM | COc1cc2ncnc(Nc3cccc(Cl)c3F)c2cc1O[C@H]1CC[C@]2(CC1)C(=O)N(C)CCN2C [2(1), anti-9-[4-(3-chloro-2-fluoro-phenylamino)-7-methoxy-quinazolin-6-yloxy]-1,4-dimethyl-1,4-diaza-spiro[5.5]undecan-5-one]
5 | 1 nM | COc1cc2ncnc(Nc3cccc(Cl)c3F)c2cc1O[C@H]1CC[C@]2(CC1)C(=O)NCCN2C [Example 2, anti-9-[4-(3-chloro-2-fluoro-phenylamino)-7-methoxy-quinazolin-6-yloxy]-1-methyl-1,4-diaza-spiro[5.5]undecan-5-one]
